Data reported in patent publication US5741811A, “Polythiophene anti-tumor agents” (Purdue Research Foundation, priority 1996, dated 1998).

How the values were obtained:
[1] = test system: UO-31 renal cancer cells; assay: NCI human tumor cell line panel growth inhibition; type: cell-based; details: read-out: Log10 GI50 (converted)
[2] = test system: HCT-15 colon cancer cells; assay: NCI human tumor cell line panel growth inhibition; type: cell-based; details: Homo sapiens, read-out: Log10 GI50 (converted)
[3] = test system: NCI-H522 lung cancer cells; assay: NCI human tumor cell line panel growth inhibition; type: cell-based; details: read-out: Log10 GI50 (converted)
[4] = test system: T-47D breast cancer cells; assay: NCI human tumor cell line panel growth inhibition; type: cell-based; details: T47D, read-out: Log10 GI50 (converted)
Experimental: The assay was carried out in 96-well microtiter plates. The MTT assay is based on the production of a dark blue formazan product by dehydrogenase in the mitochondria of live tumor cells after exposure to drug for 6 days [M. C. […] The SRB assay is based on the binding of the anionic group to the basic amino acid residues of cellular proteins after exposure of tumor cells to drug for 2 days [P. Skehan, R. Storeng, D. Scudiero, A. Monks, J. McMahon, D. Vistica, J. T. Warren, H. Bohesch, S. Kenney and M. R. Boyd, J. Nat.

[5] = test system: HS 578T breast cancer cells; assay: NCI human tumor cell line panel growth inhibition; type: cell-based; details: read-out: Log10 GI50 (converted)
Description: (§1) The cytotoxic activity of the present polythiophene compounds have been measured utilizing three different assays or screens. The first screen measures the cytotoxicity against a panel of sixty different human tumor cell lines. This assay provides data regarding the general cytotoxicity of an individual compound. In particular this type of assay is useful in identifying compounds which have enhanced cytotoxic activity against slow growing tumors as compared to faster growing tumor cells such as leukemia tumor cell lines. The identification of such compounds is critical since previously identified antitumor agents have low cytotoxic activity against slower growing tumors. […] The specificity of a cytotoxic compound for tumor cell lines relative to normal cells is an important characteristic of an effective antitumor agent.
(§2) The length of a bar is indicative of differential cytotoxicity against a specific type of tumor cells or tumor panels.
(§3) The antitumor cytotoxicity of the thiophene compounds tested in the first two in vitro assays was measured by a microculture assay using either 3-(4,5-dimethylthiazol-2-yl)-2,5-diphenyltetrazolium bromide (MTT) or sulforhodamine B (SRB). [M. R. Boyd in "Principles and Practices of Oncology," V. T. DeVita, Jr., S. Hellman and S. A. Rosenberg (Eds.), Vol. 3, PPO Updates, Number 10, 1989.] This assay has an advantage over in vivo assay in that results are obtained within a week as opposed to several months. The assay was carried out in 96-well microtiter plates. The MTT assay is based on the production of a dark blue formazan product by dehydrogenase in the mitochondria of live tumor cells after exposure to drug for 6 days [M. C. Alley, D. A. Scudiero, A. Monks, M. L. Hursey, M. J. Czerwinski, D. L. Fine, B. J. Abbott, J. G. Mayo, R. H. Shoemaker and M. R. Boyd, Cancer Res., 48, 589, 1988.] Thus, only live cells are stained and can be measured at 570 nm. The SRB assay is based on the binding of the anionic group to the basic amino acid residues of cellular proteins after exposure of tumor cells to drug for 2 days [P. Skehan, R. Storeng, D. Scudiero, A. Monks, J. McMahon, D. Vistica, J. T. Warren, H. Bohesch, S. Kenney and M. R. Boyd, J. Nat. Cancer Inst., 82, 1107, 1990.] Thus, the total protein (viability) can be measured at 564 nm.

[6] = test system: MCF7 breast cancer cells; assay: NCI human tumor cell line panel growth inhibition; type: cell-based; details: read-out: Log10 GI50 (converted)
Description: as §1, §2, §3

[7] = test system: MDA-N breast cancer cells; assay: NCI human tumor cell line panel growth inhibition; type: cell-based; details: read-out: Log10 GI50 (converted)
Description: as §1, §2, §3

[8] = test system: MCF7/ADR-RES breast cancer cells; assay: NCI human tumor cell line panel growth inhibition; type: cell-based; details: read-out: Log10 GI50 (converted)
Description: as §1, §2, §3

[9] = test system: KM12 colon cancer cells; assay: NCI human tumor cell line panel growth inhibition; type: cell-based; details: Homo sapiens, read-out: Log10 GI50 (converted)
Description: as §1, §2, §3

[10] = test system: BT-549 breast cancer cells; assay: NCI human tumor cell line panel growth inhibition; type: cell-based; details: read-out: Log10 GI50 (converted)
Description: as §1, §2, §3

[11] = test system: MDA-MB-435 breast cancer cells; assay: NCI human tumor cell line panel growth inhibition; type: cell-based; details: read-out: Log10 GI50 (converted)
Description: as §1, §2, §3

[12] = test system: PC-3 prostate cancer cells; assay: NCI human tumor cell line panel growth inhibition; type: cell-based; details: read-out: Log10 GI50 (converted)
Description: as §1, §2, §3

[13] = test system: SK-MEL-5 melanoma cells; assay: NCI human tumor cell line panel growth inhibition; type: cell-based; details: read-out: Log10 GI50 (converted)
Description: as §1, §2, §3

[14] = test system: SK-MEL-28 melanoma cells; assay: NCI human tumor cell line panel growth inhibition; type: cell-based; details: read-out: Log10 GI50 (converted)
Description: as §1, §2, §3

[15] = test system: DU-145 prostate cancer cells; assay: NCI human tumor cell line panel growth inhibition; type: cell-based; details: read-out: Log10 GI50 (converted)
Description: as §1, §2, §3

[16] = test system: SN12C renal cancer cells; assay: NCI human tumor cell line panel growth inhibition; type: cell-based; details: read-out: Log10 GI50 (converted)
[17] = test system: HOP-62 lung cancer cells; assay: NCI human tumor cell line panel growth inhibition; type: cell-based; details: Homo sapiens, read-out: Log10 GI50 (converted)
[18] = test system: SF-295 CNS cancer cells; assay: NCI human tumor cell line panel growth inhibition; type: cell-based; details: read-out: Log10 GI50 (converted)
[19] = test system: RXF-393 renal cancer cells; assay: NCI human tumor cell line panel growth inhibition; type: cell-based; details: Homo sapiens, read-out: Log10 GI50 (converted)
[20] = test system: MALME-3M melanoma cells; assay: NCI human tumor cell line panel growth inhibition; type: cell-based; details: read-out: Log10 GI50 (converted)
[21] = test system: ACHN renal cancer cells; assay: NCI human tumor cell line panel growth inhibition; type: cell-based; details: read-out: Log10 GI50 (converted)
[22] = test system: NCI-H23 lung cancer cells; assay: NCI human tumor cell line panel growth inhibition; type: cell-based; details: read-out: Log10 GI50 (converted)
[23] = test system: COLO-205 colon cancer cells; assay: NCI human tumor cell line panel growth inhibition; type: cell-based; details: Homo sapiens; COLO-205, colon cancer; read-out: Log10 GI50 (converted)
[24] = test system: NCI-H460 lung cancer cells; assay: NCI human tumor cell line panel growth inhibition; type: cell-based; details: Homo sapiens, read-out: Log10 GI50 (converted)
[25] = test system: M-14 melanoma cells; assay: NCI human tumor cell line panel growth inhibition; type: cell-based; details: M14, read-out: Log10 GI50 (converted)
[26] = test system: TK-10 renal cancer cells; assay: NCI human tumor cell line panel growth inhibition; type: cell-based; details: Homo sapiens, read-out: Log10 GI50 (converted)
[27] = test system: U251 CNS cancer cells; assay: NCI human tumor cell line panel growth inhibition; type: cell-based; details: Homo sapiens, U-251, read-out: Log10 GI50 (converted)
[28] = test system: HT29 colon cancer cells; assay: NCI human tumor cell line panel growth inhibition; type: cell-based; details: Homo sapiens, HT-29, read-out: Log10 GI50 (converted)
[29] = test system: IGROV-1 ovarian cancer cells; assay: NCI human tumor cell line panel growth inhibition; type: cell-based; details: Homo sapiens, read-out: Log10 GI50 (converted)
[30] = test system: NCI-H226 lung cancer cells; assay: NCI human tumor cell line panel growth inhibition; type: cell-based; details: Homo sapiens, read-out: Log10 GI50 (converted)
[31] = test system: 786-0 renal cancer cells; assay: NCI human tumor cell line panel growth inhibition; type: cell-based; details: read-out: Log10 GI50 (converted)
[32] = test system: HCC-2998 colon cancer cells; assay: NCI human tumor cell line panel growth inhibition; type: cell-based; details: Homo sapiens, read-out: Log10 GI50 (converted)
[33] = test system: OVCAR-8 ovarian cancer cells; assay: NCI human tumor cell line panel growth inhibition; type: cell-based; details: Homo sapiens, read-out: Log10 GI50 (converted)
Experimental: (§4) The first screen measures the cytotoxicity against a panel of sixty different human tumor cell lines. This assay provides data regarding the general cytotoxicity of an individual compound.
as §2, §3

[34] = test system: SW-620 colon cancer cells; assay: NCI human tumor cell line panel growth inhibition; type: cell-based; details: Homo sapiens, read-out: Log10 GI50 (converted)
Experimental: as §4, §2, §3

[35] = water

`OCc1cc(-c2ccc(-c3cccs3)s2)sc1CO` showed a GI50 [1] of 64.6 µM, a GI50 [2] of 28.2 µM and a GI50 [3] of 33.9 µM. The GI50 [4] was 0.427 µM, the GI50 [5] was 52.5 µM and the GI50 [6] was 0.178 µM. It also gave a GI50 [7] of 5.37 µM, a GI50 [8] of 57.5 µM and a GI50 [9] of 16.6 µM. The GI50 [10] was 83.2 µM, the GI50 [11] was 15.1 µM and the GI50 [12] was 49 µM. For the same molecule, the GI50 [13] was over 10 µM, the GI50 [14] was 39.8 µM and the GI50 [15] was 55 µM. For the same molecule, the GI50 [16] was 46.8 µM, the GI50 [17] was 20 µM and the GI50 [18] was 33.9 µM. For the same molecule, the GI50 [19] was 8.71 µM, the GI50 [20] was 29.5 µM and the GI50 [21] was 56.2 µM. It also gave a GI50 [22] of 38.9 µM, a GI50 [23] of 5.89 µM and a GI50 [24] of 5.62 µM. It also gave a GI50 [25] of 51.3 µM, a GI50 [26] of 20.9 µM and a GI50 [27] of 69.2 µM. It also gave a GI50 [28] of 18.6 µM, a GI50 [29] of 0.229 µM and a GI50 [30] of 0.257 µM. The GI50 [31] was 52.5 µM, the GI50 [32] was 0.316 µM and the GI50 [33] was 50.1 µM. It also gave a GI50 [34] of 40.7 µM.
With `NCc1ccc(-c2ccc(-c3cccs3)s2)s1` [NSC Code 652866, aminomethylterthiophene] the “aminomethylterthiophene dissolved by 1 mL of H2O (as cyclodextrin complex)” value [35] was “up to 77 mg”.
